# Where “and” joins values, the source holds several entries; their conditions need not be identical. Equal entries are not always repeated.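 In this assay, cells in 96-well plates receive the compound at five concentrations for 48 hours. Endpoints are linearly interpolated between the surrounding concentrations. GI50 marks 50% less growth. TGI: total growth inhibition.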 *1 amine or outer side, *2 acyl side, *3 side chain or, on linkers, in order; H or OH if unused. Where a SMILES comes first, the peptide text is derived from it. Bridges are numbered along the chain shown (N, C = ends). Roman numbers before positions name the chains, in order. [ ]: non-standard residue; d: D form. Actinocin(9to1) = Cc1c2oc3c(C)ccc(C(=O)[*:1])c3nc-2c(C(=O)[*:2])c(N)c1=O; NMeT = CN[CH](C(=O)O)[CH](C)O; Sar = CNCC(=O)O
# Tests used:
# Experiment in all cases: NCI tumour cell line growth inhibition, 48 h
# [1] = system: SNB-78 CNS
# [2] = system: LXFL 529 NSCLC
# [3] = system: DLD-1 colon
# [4] = system: DMS 114 small cell lung
# [5] = system: KM20L2 colon
# [6] = system: MDA-N
# [7] = system: RXF-631 renal
# [8] = system: XF 498 CNS
# [9] = system: HOP-18 NSCLC
# [10] = system: SN12K1 renal
# [11] = system: P388 leukemia
# [12] = system: P388/ADR leukemia
SMILES,TGI [1],TGI [2],TGI [3],TGI [4],TGI [5],TGI [6],TGI [7],TGI [8],TGI [9],further results
CC1=C(C(=O)Nc2cc(=O)n(C)c(=O)n2C)C(c2cccc([N+](=O)[O-])c2)C(C(=O)Nc2cc(=O)n(C)c(=O)n2C)=C(C)N1,> 100 µM,> 100 µM,> 100 µM,> 100 µM,> 100 µM,–,–,–,–,–
"Cc1c2oc3c(C)ccc(C(=O)NC4C(=O)NC(C(C)C)C(=O)N5CCCC5C(=O)N(C)CC(=O)N(C)C(C(C)O)C(=O)OC4C)c3nc-2c(C(=O)NC2C(=O)NC(C(C)C)C(=O)N3CCCC3C(=O)N(C)CC(=O)N(C)C(C(C)O)C(=O)OC2C)c(N)c1=O (configuration not stated) (I: TVP[Sar][NMeT] / II: TVP[Sar][NMeT]; ester I:1-I:C, II:1-II:C; linker I:N-II:N via Actinocin(9to1); configuration not given here)",–,–,–,–,–,16.9 µM and > 1 µM,–,–,–,–
CNC/C(Cl)=N/S(=O)(=O)c1ccc(C)cc1,–,–,–,–,–,29.5 µM,–,–,–,–
CC1(C)CC2=C(Sc3ccccc3N2)C(=O)C1C(=O)C(=O)Nc1cccc([N+](=O)[O-])c1 (configuration not stated),–,–,–,–,–,> 100 µM,–,–,–,–
CCOC(=O)N1c2c(ccn2C)-c2ccn(C)c2N1C(=O)OCC,–,30.9 µM,29.5 µM,–,27.8 µM,–,45.8 µM,30.7 µM,–,–
O=C(O)NC(c1ccccc1)C(NC(=O)c1ccccc1)c1ccccc1 (configuration not stated),> 100 µM,–,> 100 µM,> 100 µM,> 100 µM,–,–,> 100 µM,> 100 µM,–
COc1cc(OC)c(SSCCCCS(=O)O)c(OC)c1,29.4 µM,25.2 µM,41.1 µM,39 µM,37.9 µM,–,–,27.6 µM,45.8 µM,–
Cc1cc(=O)oc2c(C)c(O)ccc12,–,–,–,–,–,> 100 µM,–,–,–,–
C/C=C1\C=C(OC)CN(CCc2c[nH]c3ccccc23)C1,–,> 100 µM,> 100 µM,> 100 µM,> 100 µM,–,–,> 100 µM,–,–
Cc1cccc(C)c1NC(=O)C(=O)CC(=O)/C=C/c1ccccc1,–,–,–,–,–,> 100 µM,–,–,–,–
C=CC1CCC[N+]1(CC(=O)OCC)Cc1ccccc1 (configuration not stated),–,–,–,–,–,> 100 µM,–,–,–,–
CC(=O)OC1CCn2nnc(CO)c21 (configuration not stated),> 100 µM,> 100 µM,> 100 µM,> 100 µM,> 100 µM,–,–,> 100 µM,> 100 µM,–
O=c1ccs[nH]1,–,–,–,–,–,60.2 µM,–,–,–,–
CCOC(=O)NC1C2CC(=O)OC(O2)C1OC(C)=O (configuration not stated),> 100 µM,> 100 µM,> 100 µM,–,> 100 µM,–,> 100 µM,–,> 100 µM,–
CC(=O)OC[C@]1(C)CCCC2(C)C1CCC1C=C(C)[C@H]3CCC12C3 (some centres not stated),> 100 µM,> 100 µM,> 100 µM,–,> 100 µM,–,–,–,–,–
O=C1Cc2c([nH]c3ccccc23)-c2ccccc2N1,> 100 µM,> 100 µM,> 100 µM,–,50.7 µM,–,–,91.8 µM,> 100 µM,–
C[C@]12CC[C@H](OC3OC(CO)C(O)C(O)C3O)C[C@H]1CC[C@@H]1[C@@H]2CC[C@]2(C)[C@@H](C3=CCOC3=O)CC[C@]12O (some centres not stated),50 µM,–,> 50 µM,50 µM,50 µM,> 100 µM,–,11.2 µM,–,TGI [10]: 41.5 µM; TGI [11]: 20.9 µM; TGI [12]: 50 µM
CCN(CC)CCCNC(=O)C1COc2cc(-c3cc(=O)c4ccccc4o3)ccc2O1 (configuration not stated),> 100 µM,> 100 µM,> 100 µM,50.9 µM,> 100 µM,–,> 100 µM,–,> 100 µM,–
Cc1nc(C(N)=S)sc1C(=O)CC(=O)C(=O)Nc1ccccc1[N+](=O)[O-],> 100 µM,> 100 µM,> 100 µM,> 100 µM,> 100 µM,–,> 100 µM,–,> 100 µM,–
O=C(O)CCCSc1ccccc1,–,–,–,–,–,> 100 µM,–,–,–,–
CCOC(=O)/C(=C\c1ccc(N(CCC#N)CCC#N)cc1)NC(=O)c1cc([N+](=O)[O-])ccc1Cl,> 100 µM,> 100 µM,> 100 µM,> 100 µM,> 100 µM,–,> 100 µM,–,> 100 µM,–
CN1CC(=O)N(C)c2ncn(Cc3ccccc3)c2C1=O,> 100 µM,> 100 µM,> 100 µM,> 100 µM,–,–,> 100 µM,96.4 µM,> 100 µM,–
c1ccc2c(NCCCCCCNc3c4ccccc4nc4ccccc34)c3ccccc3nc2c1,–,2.42 µM,3.29 µM,2 µM,3.05 µM,1.62 µM,–,2.72 µM,15.2 µM,–
CCOP(=O)(OCC)/C(=C/NC(=S)c1ccncc1)C(=O)OC,–,–,–,–,–,> 100 µM,–,–,–,–

SMILES,TGI [1],TGI [2],TGI [3],TGI [4],TGI [5],TGI [6],TGI [7],TGI [8],TGI [9],further results
COc1ccccc1C(O)(c1ccccc1)C(O)(c1ccccc1)c1ccccc1OC (configuration not stated),> 100 µM,> 100 µM,> 100 µM,> 100 µM,> 100 µM,–,> 100 µM,> 100 µM,> 100 µM,–
Cc1ccc(N2C(=O)C=C(C3=C(O)C(=O)N(c4ccc(C)cc4)C3=O)C2=O)cc1,–,–,–,–,–,> 100 µM,–,–,–,–
CC(=O)NC1=C(NC(C)(C)C)C(=O)c2ccccc2C1=O,99.1 µM,31.7 µM,34.3 µM,54.3 µM,38 µM,–,–,23.1 µM,28.4 µM,–
C=C(C#N)C1OCC2OC(C)(C)OC21 (configuration not stated),43 µM,–,34.4 µM,57.2 µM,–,–,35.8 µM,–,81.7 µM,–
COc1ccc(-c2cc(=O)c3ccccc3o2)cc1N,> 100 µM,> 100 µM,–,> 100 µM,> 100 µM,–,> 100 µM,91.1 µM,> 100 µM,–
COc1ccc(/C(=N\NC(=O)C(=O)NN)C(c2ccc(OC)cc2)C2(O)C(=O)Nc3ccccc32)cc1 (configuration not stated),> 100 µM,> 100 µM,> 100 µM,> 100 µM,> 100 µM,–,> 100 µM,> 100 µM,–,–
Cn1nc(-c2ccccc2)c(C(=O)/C=C/c2ccc(Cl)cc2)c(N2CCCCC2)c1=O,–,3.33 µM,7.08 µM,4.37 µM,6.46 µM,–,9.79 µM,3.91 µM,4.94 µM,–
C[C@]12CCC(=O)C(O)=C1CC[C@@H]1C2CC[C@]2(C)NC(=O)CCC12 (some centres not stated),> 100 µM,> 100 µM,–,> 100 µM,> 100 µM,–,> 100 µM,> 100 µM,> 100 µM,–
CC(C)(C)CC(C)(C)c1cc2c(O)c(c1)Cc1cc(C(C)(C)CC(C)(C)C)cc(c1O)Cc1cc(C(C)(C)CC(C)(C)C)cc(c1O)Cc1cc(C(C)(C)CC(C)(C)C)cc(c1O)Cc1cc(C(C)(C)CC(C)(C)C)cc(c1O)C2,> 100 µM,> 100 µM,> 100 µM,> 100 µM,> 100 µM,–,–,> 100 µM,–,–
C=C1C(C2(C)C(OC(C)=O)CC(=O)OC(C)(COC(C)=O)C2CC(=O)OC)C(OC=O)C(OC(=O)C(O)C(C)CC)C2(C)C(c3ccoc3)CC(=O)C12O (configuration not stated),–,–,–,–,–,> 100 µM,–,–,–,–
CCN(CC)CCC(=O)c1ccc(C)cc1,–,–,–,–,–,51.6 µM,–,–,–,–
Cc1cccc(C)c1CO,> 100 µM,> 100 µM,> 100 µM,> 100 µM,> 100 µM,–,> 100 µM,> 100 µM,–,–
CC1=C[C@]2(O)C(=O)[C@H](C)C[C@H]3[C@@H](CC[C@@](C)(O)/C=C\2C1=O)C3(C)C,82.5 µM,37.9 µM,34.9 µM,> 53.9 µM,19.5 µM,–,> 74.3 µM,32.8 µM,98.9 µM,–
Cc1occc1C(=S)Nc1ccc(Cl)c(C(=O)OC(C(C)C)C(C)C)c1,–,–,–,–,–,29 µM,–,–,–,–
CCOc1ccc(N=Cc2ccc3cc(C)ccc3n2)cc1,> 100 µM,> 100 µM,> 100 µM,> 100 µM,> 100 µM,–,> 100 µM,> 100 µM,> 100 µM,–
O=C(c1ccccc1)c1c(-c2ccccc2)sc2nc3ccccc3nc12,> 100 µM,–,–,> 100 µM,> 100 µM,–,–,> 100 µM,–,–
CC(=O)[CH-]C(=O)c1ccccc1.CC(=O)[CH-]C(=O)c1ccccc1.CC(C)CCCC(C)[C@H]1CCC2[C@@H]3CC=C4C[C@@H]([O-])CC[C@]4(C)C3CC[C@@]21C.CC(C)CCCC(C)[C@H]1CCC2[C@@H]3CC=C4C[C@@H]([O-])CC[C@]4(C)C3CC[C@@]21C.[Ti+4] (some centres not stated),–,> 100 µM,> 100 µM,–,> 100 µM,–,–,–,> 100 µM,GI50 [2]: > 100 µM; GI50 [3]: > 100 µM; GI50 [9]: > 100 µM; GI50 [5]: > 100 µM
Cc1ccc(/C(O)=C/c2nc3c(nc2NC24CC5CC(CC(C5)C2)C4)c(=O)oc2ccccc23)cc1,–,> 100 µM,> 100 µM,> 100 µM,> 100 µM,–,–,> 100 µM,–,–
O=C(O)Cc1cc(=O)[nH]c2c1/C(=N/O)CCC2,–,> 100 µM,> 100 µM,–,–,–,–,> 100 µM,> 100 µM,–
CC(C)[O-].CC(C)[O-].O=C1C=C([O-])C(=O)c2ccccc21.O=C1C=C([O-])C(=O)c2ccccc21.[Ti+4],–,> 100 µM,> 100 µM,–,> 100 µM,–,–,> 100 µM,> 100 µM,GI50 [2]: 80.8 µM; GI50 [3]: > 100 µM; GI50 [9]: > 86.7 µM; GI50 [8]: > 100 µM; GI50 [5]: 44.1 µM
COc1ccc(NC(=O)CC/C(CC(=O)C(C)(C)C)=N\NC(=O)C(=O)NN)cc1,> 100 µM,> 100 µM,> 100 µM,> 100 µM,> 100 µM,–,> 100 µM,–,> 100 µM,–
C=C1C(=O)OC2C1CCC(C)C1C=CC(=O)C12C (configuration not stated),23.3 µM,3.35 µM,4.19 µM,–,14.6 µM,3.88 µM,–,13.4 µM,20.7 µM,–
O=C(CC(C(=O)c1cccs1)c1cccs1)c1ccsc1 (configuration not stated),–,–,–,–,–,46.4 µM,–,–,–,–
CC(=C/C=C/C=C(C)\C=C\C=C(\C)C(=O)O)/C=C/C=C(/C)C(=O)O,–,–,–,–,–,> 100 µM,–,–,–,–

# Reference: PubChem BioAssay (NCI)
